Key:
Test in all cases: relative viability (nuclei count vs DMSO), 5 days (fraction); higher = more cells survive
LU99A = system: LU99A
Outline: (§1)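 Lung cancer cell lines were pin-tool dosed in 1536-well plates on the day after seeding, with either a lone drug or a fixed anchor-drug dose plus five library-drug doses (not always all listed) in √10 steps. Nuclei were counted on 4× images after 5 days. Relative viability is the ratio of treated-well to vehicle-well nuclei counts, with each value a median of duplicate plates.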

NCI-H1944 = system: NCI-H1944
Outline: as §1

LCLC-103H = system: LCLC-103H
Outline: as §1

NCI-H650 = system: NCI-H650
Outline: as §1

NCI-H2023 = system: NCI-H2023
Outline: as §1

NCI-H1793 = system: NCI-H1793
Outline: as §1

NCI-H838 = system: NCI-H838
Outline: as §1

SK-MES-1 = system: SK-MES-1
Outline: as §1

EPLC-272H = system: EPLC-272H
Outline: as §1

EMC-BAC-2 = system: EMC-BAC-2
Outline: as §1

HCC-827 = system: HCC-827
Outline: as §1

Which relative viability (LU99A; first compound 0.04 µM) does the source give for `Cc1sc2c(c1C)C(c1ccc(Cl)cc1)=N[C@@H](CC(=O)OC(C)(C)C)c1nnc(C)n1-2` [JQ1] + Cc1nc(Nc2ncc(C(=O)Nc3c(C)cccc3Cl)s2)cc(N2CCN(CCO)CC2)n1 [Dasatinib] (partner 0.075 µM) here?
The relative viability was 0.551.

What about the relative viability (LU99A; first compound 0.1265 µM) of the same compound?
The relative viability was 0.378.

And the relative viability (LU99A; first compound 0.4 µM)?
Its relative viability is 0.603.

What about the relative viability (LU99A; first compound 1.265 µM) of the same compound?
The relative viability was 0.207.

What about the relative viability (LU99A; first compound 4 µM) of the same compound?
Its relative viability is 0.206.

What about the relative viability (NCI-H1944; first compound 0.04 µM) of the same compound?
Its relative viability is 0.202.

And the relative viability (NCI-H1944; first compound 0.1265 µM)?
Its relative viability is 0.14.

What about the relative viability (NCI-H1944; first compound 0.4 µM) of the same compound?
Its relative viability is 0.204.

And the relative viability (NCI-H1944; first compound 1.265 µM)?
The relative viability was 0.179.

And the relative viability (NCI-H1944; first compound 4 µM)?
The relative viability was 0.214.

What about the relative viability (LCLC-103H; first compound 0.04 µM) of the same compound?
Its relative viability is 0.433.

What about the relative viability (LCLC-103H; first compound 0.1265 µM) of the same compound?
Its relative viability is 0.418.

What about the relative viability (LCLC-103H; first compound 0.4 µM) of the same compound?
The relative viability was 0.464.

What about the relative viability (LCLC-103H; first compound 1.265 µM) of the same compound?
The relative viability was 0.327.

What about the relative viability (LCLC-103H; first compound 4 µM) of the same compound?
Its relative viability is 0.266.

What about the relative viability (NCI-H650; first compound 0.04 µM) of the same compound?
Its relative viability is 0.462.

And the relative viability (NCI-H650; first compound 0.1265 µM)?
Its relative viability is 0.301.

What about the relative viability (NCI-H650; first compound 0.4 µM) of the same compound?
The relative viability was 0.328.

What about the relative viability (NCI-H650; first compound 1.265 µM) of the same compound?
The relative viability was 0.277.

And the relative viability (NCI-H650; first compound 4 µM)?
Its relative viability is 0.244.

And the relative viability (NCI-H2023; first compound 0.04 µM)?
Its relative viability is 0.5.

And the relative viability (NCI-H2023; first compound 0.1265 µM)?
Its relative viability is 0.339.

What about the relative viability (NCI-H2023; first compound 0.4 µM) of the same compound?
The relative viability was 0.272.

And the relative viability (NCI-H2023; first compound 1.265 µM)?
The relative viability was 0.178.

And the relative viability (NCI-H2023; first compound 4 µM)?
Its relative viability is 0.15.

And the relative viability (NCI-H1793; first compound 0.04 µM)?
Its relative viability is 0.312.

What about the relative viability (NCI-H1793; first compound 0.1265 µM) of the same compound?
The relative viability was 0.345.

And the relative viability (NCI-H1793; first compound 0.4 µM)?
The relative viability was 0.435.

What about the relative viability (NCI-H1793; first compound 1.265 µM) of the same compound?
The relative viability was 0.385.

What about the relative viability (NCI-H1793; first compound 4 µM) of the same compound?
The relative viability was 0.418.

What about the relative viability (NCI-H838; first compound 0.04 µM) of the same compound?
Its relative viability is 0.294.

And the relative viability (NCI-H838; first compound 0.1265 µM)?
Its relative viability is 0.217.

And the relative viability (NCI-H838; first compound 0.4 µM)?
The relative viability was 0.264.

What about the relative viability (NCI-H838; first compound 1.265 µM) of the same compound?
Its relative viability is 0.229.

And the relative viability (NCI-H838; first compound 4 µM)?
The relative viability was 0.201.

And the relative viability (SK-MES-1; first compound 0.04 µM)?
The relative viability was 0.338.

And the relative viability (SK-MES-1; first compound 0.1265 µM)?
The relative viability was 0.273.

What about the relative viability (SK-MES-1; first compound 0.4 µM) of the same compound?
The relative viability was 0.311.

What about the relative viability (SK-MES-1; first compound 1.265 µM) of the same compound?
The relative viability was 0.168.

And the relative viability (SK-MES-1; first compound 4 µM)?
The relative viability was 0.171.

What about the relative viability (EPLC-272H; first compound 0.04 µM) of the same compound?
Its relative viability is 0.352.

What about the relative viability (EPLC-272H; first compound 0.1265 µM) of the same compound?
The relative viability was 0.382.

And the relative viability (EPLC-272H; first compound 0.4 µM)?
The relative viability was 0.358.

And the relative viability (EPLC-272H; first compound 1.265 µM)?
Its relative viability is 0.175.

What about the relative viability (EPLC-272H; first compound 4 µM) of the same compound?
The relative viability was 0.204.

And the relative viability (EMC-BAC-2; first compound 0.04 µM)?
Its relative viability is 0.33.

And the relative viability (EMC-BAC-2; first compound 0.1265 µM)?
The relative viability was 0.235.

What about the relative viability (EMC-BAC-2; first compound 0.4 µM) of the same compound?
The relative viability was 0.254.

And the relative viability (EMC-BAC-2; first compound 1.265 µM)?
The relative viability was 0.205.

And the relative viability (EMC-BAC-2; first compound 4 µM)?
Its relative viability is 0.371.

And the relative viability (HCC-827; first compound 0.04 µM)?
Its relative viability is 0.371.

What about the relative viability (HCC-827; first compound 0.4 µM) of the same compound?
The relative viability was 0.227.

From the supplement of paper PMC10307832
